Test results published in ChEMBL document CHEMBL3988442, “University of Dundee, Small-Polar-MMV Screening Library” (2021).

Tests used:
[1] = microbe, parasite or virus in culture; details: Mycobacterium tuberculosis, 96 h, read-out: pIC50 (converted)
[2] = microbe, parasite or virus in culture; details: Mycobacterium tuberculosis, 72 h, read-out: pIC50 (converted)

Work on `CCCc1nc(C(=O)NCCc2cccnc2)cs1` yielded an IC50 [1] of 281 µM and an IC50 [2] of 277 µM.
In the case of `CC(C)Oc1ccc(CNC(=O)N2CCCC2)cn1`, the IC50 [1] is reported as 118 µM and the IC50 [2] is reported as 126 µM.
`O=S(=O)(NCc1nccs1)N1CCc2ccccc2C1` showed an IC50 [1] of 146 µM and an IC50 [2] of 133 µM.
`CNC(=O)CSc1nnnn1-c1ccc(C(C)C)cc1` showed an IC50 [1] of 134 µM and an IC50 [2] of 120 µM.
With `Cc1c(Br)cccc1S(=O)(=O)NCCN` the IC50 [1] was greater than 501 µM and the IC50 [2] was 212 µM.
For `NCCc1nc(-c2cccc(Cl)c2)no1`, the IC50 [1] was 190 µM and the IC50 [2] was 122 µM.
`COCCNC(=O)c1cc(-c2ccccc2F)no1` gave an IC50 [1] of 127 µM and an IC50 [2] of 195 µM.
`COc1ccc(F)c(-c2cc(C(=O)NC3CC3)ccn2)c1` showed an IC50 [1] of 10.6 µM and an IC50 [2] of 22.7 µM.
For `Cc1nc(CN(C)C(=O)c2nc(C(C)C)cs2)no1`, the IC50 [1] was 5.83 µM and the IC50 [2] was 71.2 µM.
In the case of `CC1CCCN(C(=O)c2nnn(-c3ccc(C(F)(F)F)cc3)n2)C1` (configuration not stated), the IC50 [1] is reported as 43.9 µM and the IC50 [2] is reported as 18.3 µM.
`CC(OC(=O)c1ccc(C(F)(F)F)cc1)C(N)=O` (configuration not stated) gave an IC50 [1] of 466 µM and an IC50 [2] of 229 µM.
`COC1(CNC(=O)c2cccc(C#N)c2)CCSC1` (configuration not stated) showed an IC50 [1] greater than 50.1 µM and an IC50 [2] greater than 50.1 µM.
`COc1ccc(C2CCN(CC(=O)NC(N)=O)C2)cc1` (configuration not stated) showed an IC50 [1] greater than 501 µM and an IC50 [2] greater than 501 µM.
Compound `NCc1ccncc1OCC(F)(F)F` has an IC50 [1] greater than 501 µM and an IC50 [2] greater than 501 µM.
In the case of `O=C(NCC1CC1)N1CCN(Cc2ccc3c(c2)OCCO3)CC1`, the IC50 [1] is reported as 17.9 µM and the IC50 [2] is reported as 45.6 µM.
With `Cc1ccc(NC(=O)NCCS(=O)(=O)N(C)C)cc1Cl` the IC50 [1] was 401 µM and the IC50 [2] was 205 µM.
`OC(CN1CCn2ccnc2C1)c1cccc(F)c1` (configuration not stated) showed an IC50 [1] greater than 501 µM and an IC50 [2] greater than 501 µM.
In the case of `CN(C)C1(CN)Cc2ccccc2C1`, the IC50 [1] is reported as 127 µM and the IC50 [2] is reported as 81.5 µM.
`CCNCC(O)COc1ccc(C)cc1OC` (configuration not stated) showed an IC50 [1] of 10.5 µM and an IC50 [2] of 218 µM.
`Cc1ccc(S(=O)(=O)NCCN)cc1C(F)(F)F` gave an IC50 [1] greater than 501 µM and an IC50 [2] of 102 µM.
Work on `CCC(CC)C(CN)N(C)C` (configuration not stated) yielded an IC50 [1] of 204 µM and an IC50 [2] of 78.1 µM.
Work on `CCOC(=O)CNC(=O)c1ccc2c(c1)OCCO2` yielded an IC50 [1] greater than 501 µM and an IC50 [2] greater than 501 µM.
`Cc1cc(NCCCC(F)(F)F)n2nc(C)cc2n1` gave an IC50 [1] of 10.2 µM and an IC50 [2] of 15.6 µM.
`Cc1nnc(SC[C@H](O)COCc2ccccc2)s1` showed an IC50 [1] of 133 µM and an IC50 [2] of 209 µM.
For `COc1cccc(CNCc2cccnc2-n2cccn2)c1OC`, the IC50 [1] was greater than 50.1 µM and the IC50 [2] was greater than 50.1 µM.
For `Cn1cc(NC(=O)CNC(=O)N2CCN(c3ccccc3)CC2)cn1`, the IC50 [1] was greater than 50.1 µM and the IC50 [2] was greater than 50.1 µM.
In the case of `c1ccc2[nH]c(NCC3CCCO3)nc2c1` (configuration not stated), the IC50 [1] is reported as 166 µM and the IC50 [2] is reported as greater than 501 µM.
`COc1ccc(-c2cccc(-c3ccn(CCN(C)C)n3)c2)nn1` gave an IC50 [1] of 16.3 µM and an IC50 [2] of 19.9 µM.
Work on `CCNC(=O)NCCOC(=O)c1cccc2cc[nH]c12` yielded an IC50 [1] greater than 501 µM and an IC50 [2] greater than 501 µM.
With `NC1CCN(c2ncccc2Cl)C1` (configuration not stated) the IC50 [1] was 217 µM and the IC50 [2] was 135 µM.
With `NC1CCN(c2ncc(C(F)(F)F)cc2Cl)C1` (configuration not stated) the IC50 [1] was 83.4 µM and the IC50 [2] was 123 µM.
`Cc1cnn(CCNCc2nccn2C)c1` showed an IC50 [1] of 294 µM and an IC50 [2] of 306 µM.
Work on `CCSCCOc1ccc(CO)nc1` yielded an IC50 [1] greater than 501 µM and an IC50 [2] of 216 µM.
Work on `CCOc1ccc(N2CCCN=C2NC(=O)c2ccc(Cl)cc2)cc1` yielded an IC50 [1] greater than 50.1 µM and an IC50 [2] greater than 50.1 µM.
In the case of `O=C(CCCc1ccccc1)NCc1ccccn1`, the IC50 [1] is reported as 234 µM and the IC50 [2] is reported as 168 µM.
With `N#Cc1ccc(NC2CCN(c3ncccn3)CC2)cc1C(F)(F)F` the IC50 [1] was 6.68 µM and the IC50 [2] was 12.2 µM.
`Cc1ccc(OCCSCCn2nc3ccccn3c2=O)cc1` gave an IC50 [1] greater than 50.1 µM and an IC50 [2] greater than 50.1 µM.
Compound `CC(=O)N1CCCC(c2cnc(-c3c(C)nn(C)c3C)cn2)C1` (configuration not stated) has an IC50 [1] greater than 50.1 µM and an IC50 [2] greater than 50.1 µM.
Compound `CCc1noc(CNc2cc3c(cc2Cl)OCCO3)n1` has an IC50 [1] of 8.97 µM and an IC50 [2] of 26.8 µM.
Work on `COc1cccc(CNc2ccccn2)c1O` yielded an IC50 [1] greater than 501 µM and an IC50 [2] greater than 501 µM.
Work on `CN(C)c1ccc(C(=O)N(C)C2(C#N)CCC2)cc1F` yielded an IC50 [1] greater than 501 µM and an IC50 [2] greater than 501 µM.
For `O=C1[C@H]2CN(C3CCOC3)C[C@H]2CN1c1ccccc1` (some centres not stated), the IC50 [1] was greater than 50.1 µM and the IC50 [2] was greater than 50.1 µM.
`Cc1ccc2nc(CCN)oc2c1` showed an IC50 [1] of 23.3 µM and an IC50 [2] of 78.4 µM.
`CC(C)N(Cc1ccccn1)C(=O)c1cc(Cl)c[nH]1` gave an IC50 [1] greater than 501 µM and an IC50 [2] greater than 501 µM.
`CC(C)CN(Cc1nnc(-c2ccco2)o1)CC(C)C` showed an IC50 [1] greater than 50.1 µM and an IC50 [2] of 4.4 µM.
Compound `Cc1csc(NC(=O)NC(CO)CC(C)C)n1` (configuration not stated) has an IC50 [1] of 289 µM and an IC50 [2] of 341 µM.
`CCC(N)c1cnn(CC)c1` (configuration not stated) gave an IC50 [1] greater than 501 µM and an IC50 [2] greater than 501 µM.
For `CCNC(=O)c1cc(N2CCC(COC)CC2)ccn1`, the IC50 [1] was greater than 501 µM and the IC50 [2] was 125 µM.
With `N[C@@H]1CC[C@@H](NC(=O)c2cc3sccc3[nH]2)C1` the IC50 [1] was greater than 501 µM and the IC50 [2] was 167 µM.
Compound `CCNc1cc2c(nn1)CCN(C(=O)C1COc3ccccc3C1)C2` (configuration not stated) has an IC50 [1] of 45 µM and an IC50 [2] of 44.6 µM.
In the case of `N[C@H]1CN(S(=O)(=O)c2cccc(Cl)c2)C[C@@H]1C1CC1`, the IC50 [1] is reported as greater than 501 µM and the IC50 [2] is reported as 363 µM.
In the case of `Cn1nc(C(F)(F)F)c(Cl)c1C(=O)N[C@@H]1CCNC1`, the IC50 [1] is reported as greater than 501 µM and the IC50 [2] is reported as 168 µM.
For `CC(CN1CCOCC1)NC(=O)c1csc(Br)c1` (configuration not stated), the IC50 [1] was 205 µM and the IC50 [2] was 102 µM.
In the case of `CCCc1nnc(N2CCC3(CC2)OCC(C)O3)s1` (configuration not stated), the IC50 [1] is reported as 45.5 µM and the IC50 [2] is reported as 34.3 µM.
`CC(C)NC(=O)c1ccc(N2CCCCC2=O)cc1` showed an IC50 [1] greater than 501 µM and an IC50 [2] greater than 501 µM.
In the case of `C=C(C)COC(=O)c1ccc(-n2cncn2)cc1C`, the IC50 [1] is reported as 279 µM and the IC50 [2] is reported as 182 µM.
In the case of `CC(C)NCc1nc(-c2ccc3c(c2)OCO3)c[nH]1`, the IC50 [1] is reported as greater than 50.1 µM and the IC50 [2] is reported as greater than 50.1 µM.
`NC(=O)CN(Cc1ccc(Br)cc1)C(=O)c1ccco1` gave an IC50 [1] greater than 501 µM and an IC50 [2] of 427 µM.
Work on `NCC(O)c1ccc(Cl)s1` (configuration not stated) yielded an IC50 [1] of 290 µM and an IC50 [2] of 241 µM.
Work on `N#CCc1ccc(CN)cc1` yielded an IC50 [1] of 135 µM and an IC50 [2] of 182 µM.
In the case of `COc1ccc(C(=O)Nc2nonc2NC(C)=O)cc1`, the IC50 [1] is reported as 96.4 µM and the IC50 [2] is reported as greater than 501 µM.
For `CC(C(=O)NC1CC1)N1CCN(C)c2ccccc2C1` (configuration not stated), the IC50 [1] was 276 µM and the IC50 [2] was 248 µM.
Work on `CN(Cc1nc(CC2CC2)no1)CC1Cc2ccccc2O1` (configuration not stated) yielded an IC50 [1] of 22.8 µM and an IC50 [2] of 38 µM.
With `CC(C)CCNC(=O)Cn1c(=O)oc2ccccc21` the IC50 [1] was 274 µM and the IC50 [2] was 401 µM.
`COCCCN1CCN(c2ccccc2OC)CC1` [DIMETHOLIZINE] gave an IC50 [1] greater than 501 µM and an IC50 [2] of 346 µM.
For `COc1cccc(CN2CCC3(CC2)OCC(C)O3)c1` (configuration not stated), the IC50 [1] was 244 µM and the IC50 [2] was 394 µM.
Work on `Cc1ccc2nnc(C(=O)NCC3CCCC3)nc2c1` yielded an IC50 [1] of 13.4 µM and an IC50 [2] of 10.4 µM.
Work on `CN(Cc1cccn1C)C(=O)c1ccccc1F` yielded an IC50 [1] of 262 µM and an IC50 [2] of 219 µM.
In the case of `Cc1cccc(NCCCNC(=O)c2cccs2)n1`, the IC50 [1] is reported as greater than 501 µM and the IC50 [2] is reported as greater than 501 µM.
In the case of `Cc1cc(C)c(C#N)c(N2CCOCC(CO)C2)n1` (configuration not stated), the IC50 [1] is reported as greater than 501 µM and the IC50 [2] is reported as greater than 501 µM.
With `O=C(CNCC1CC1)Nc1ccccc1` the IC50 [1] was greater than 501 µM and the IC50 [2] was 171 µM.
With `O=C1[C@H]2CN(Cc3ccco3)C[C@H]2CN1c1ccsc1` the IC50 [1] was 14.2 µM and the IC50 [2] was 8.77 µM.
`Cc1ccc(-c2noc(C(C)N)n2)cc1F` (configuration not stated) showed an IC50 [1] of 327 µM and an IC50 [2] of 368 µM.
Work on `NCCNS(=O)(=O)c1ccc(F)c(Br)c1` yielded an IC50 [1] greater than 501 µM and an IC50 [2] greater than 501 µM.
Compound `Cn1cc(C(=O)N[C@@H]2CN(Cc3ccc(F)cc3)[C@@H]3CCCO[C@@H]32)cn1` has an IC50 [1] greater than 50.1 µM and an IC50 [2] greater than 50.1 µM.
`CC(C)NS(=O)(=O)c1cc(CN)ccc1F` gave an IC50 [1] greater than 501 µM and an IC50 [2] greater than 501 µM.
